Measurements: PMC7380097, “Measurement of Bradykinin Formation and Degradation in Blood Plasma: Relevance for Acquired Angioedema Associated With Angiotensin Converting Enzyme Inhibition and for Hereditary Angioedema Due to Factor XII or Plasminogen Gene Variants” (Frontiers in Medicine, 2020)
Several values for one entry are separate records, joined by “and”; a condition that tells them apart may be missing. Identical values can stand only once. Entries after “also recorded” stand apart in the source; their conditions may differ. Counter-ions that a name gives are not always drawn. Residues, ends and D or L forms follow the SMILES beside them.

Assays:
in vitro = in vitro ADME; conditions: human; for half-life at 100 nM: plasma
Protocol: (§1) Venous blood was collected without contact with glass in plastic blood collection tubes with 0.11 M sodium citrate (BD Vacutainer Plus, BD Biosciences, Franklin Lake, NJ); the plasma was obtained by centrifugation (1,300 g, 20 min, room temperature), stored at −80°C until use and/or expedition on dry ice to Quebec City. The in vitro activation of plasma at 37°C (200 μl per experimental point sample) was performed precisely as described ([21]) in the presence of enalaprilat (final concentration 130 nM) to reduce the breakdown of BK. The samples were incubated for up to 120 min under rotary agitation (300 rpm) without any added stimulant or with recombinant human tissue kallikrein (KLK-1, 10 nM; gift from DiaMedica, Inc.), with the particulate contact system activator Pacific Hemostasis Kontact-APTT™ (2% v/v; used without the calcium supplement; composed mainly of magnesium aluminum silica and rabbit brain phospholipid; ThermoFisher Scientific) or with recombinant tissue plasminogen activator (tPA, 169 nM; Cathflo, Roche). The tPA concentration was reproduced from Molinaro et al. ([19]) and within the range reached in plasma during therapeutic fibrinolysis. Biotechnological inhibitors used in the mechanistic analysis of iBK formation were previously exploited ([20], [21]) and are listed in Table 2.
An additional set of experiments aimed at measuring the rate of BK breakdown in the presence or absence of the ACE inhibitor enalaprilat or in plasma from selected human subjects: synthetic BK (100 nM) was added to 200 μl of plasma from healthy volunteers or HAE-nC1-INH patients and incubated at 37°C under agitation for 0–20 min.
In all experiments dealing with BK EIA, the reactions were stopped by adding 1 ml of cold ethanol, as described ([21]). After further incubation on ice-water for an additional period of at least 60 min, the plasma/ethanol mixtures were cleared of precipitated proteins by centrifugation (13,000 g, 1 min), evaporated to dryness (Speed Vac apparatus) and stored at −80°C until used for BK determination. Then, the samples were reconstituted with 200 μl of distilled water, further diluted 100-fold (1,000-fold for selected samples) with the supplied EIA buffer and directly applied in duplicate to the BK EIA as recommended by the manufacturer (Phoenix Pharmaceuticals, Burlingame, CA; cat. no. EK-009-01; 96-well plate format). The BK EIA is fully cross-reactive with Lys-BK, but not at all with des-Arg^9-BK or Lys-des-Arg^9-BK.
Numerical values are reported as means ± standard errors of the mean (S.E.M.). Sets of values were compared with Kruskall-Wallis test (non-parametric ANOVA) followed by Dunn's multiple comparison test to compare selected pairs of values. Pairs of values were compared using Mann-Whitney test (Prism 5.0, GraphPad Software Inc., San Diego, CA). The half-life (t1/2) of iBK was calculated as the first order decay procedure in a software suite ([30]).

[1] = cited from earlier work
Source text: ACE blockade greatly increases BK persistence and pharmacological effect in human whole blood under a variety of in vitro stimulation conditions ([20]). Membrane-bound ACE produced by vascular endothelial cells is shed in an apparently regulated manner into blood plasma ([34]), allowing the use of blood/plasma/serum to monitor ACE activity in human subjects.

[2] = test system: angiotensin converting enzyme (ACE); assay: Effect of oral enalapril maleate on ex vivo BK half-life in plasma of healthy volunteers; set-up: species or system human; conditions: 2 daily oral doses of enalapril maleate 10 mg, healthy volunteers (two), plasma 24 h after the last dose vs before dosing
Protocol: Numerical values are reported as means ± standard errors of the mean (S.E.M.). […] The half-life (t1/2) of iBK was calculated as the first order decay procedure in a software suite ([30]).

[3] = Blood pressure of healthy volunteers taking enalapril maleate; type: in vivo, human; conditions: two normotensive healthy volunteers, 2 daily doses of enalapril maleate 10 mg (Figure S1)
Protocol: We previously reported that iBK formation was negligible in either whole blood or plasma incubated at 37°C without stimulus both in healthy donors and HAE patients sampled during remission (HAE-C1-INH type I or II) ([20], [21]). This may be paradoxical because HK is spontaneously and progressively cleaved in the blood of patients with HAE-C1-INH ([15], [16]) or HAE-nC1-INH ([17]). A possible explanation is the efficient clearance of kinins.

human B2 receptor = conditions: cited from earlier work
human B1 receptor = conditions: cited from earlier work
Source text: In the plasminogen sequence, the residue 330 is not proximal to a physiological cleavage site or to the catalytic site: it is rather located within a potential adhesion site in the kringle 3 domain of the molecule ([5]). However, the K330E variant is associated with a distinct N-glysosylation pattern and an increased susceptibility to activation by urokinase-type plasminogen activator (uPA), but not by tPA (assessed only using a chromogenic substrate) ([41]). […] If uP ...

[4] = test system: iBK generation induced by tPA; assay: tPA-induced iBK generation in plasma from HAE-FXII (T328K) patients, effect of biotechnological inhibitors; type: biochemical, human; conditions: tPA 169 nM, 20 min incubation, enalaprilat 130 nM present, inhibitor added 5 min before stimulus, 37°C, EIA
Protocol: as §1, with “2. […]” for “2.”

[5] = test system: iBK generation induced by Kontact-APTT; assay: Kontact-APTT-induced iBK generation in plasma from HAE-FXII (T328K) patients, effect of biotechnological inhibitors; type: biochemical, human; conditions: Kontact-APTT 2% v/v, 5 min incubation, enalaprilat 130 nM present, inhibitor added 5 min before stimulus, 37°C, EIA
Protocol: as §1, with “2. […]” for “2.”

[6] = test system: KLK-1-induced iBK formation; assay: KLK-1-induced iBK formation in plasma from HAE-PLG patients, effect of lanadelumab; type: biochemical, human; conditions: KLK-1 10 nM, 5 min incubation, inhibitor added 5 min before KLK-1, enalaprilat 130 nM present, EIA
Protocol: as §1, with “2. […]” for “2.”

## NC(N)=NCCC[C@H](NC(=O)[C@H](Cc1ccccc1)NC(=O)[C@@H]1CCCN1C(=O)[C@H](CO)NC(=O)[C@H](Cc1ccccc1)NC(=O)CNC(=O)[C@@H]1CCCN1C(=O)[C@@H]1CCCN1C(=O)[C@@H](N)CCCN=C(N)N)C(=O)O [BK, Bradykinin] (H-RPPGFSPFR-OH)
In vitro; female, BK t1/2 in plasma of family d (HAE-nC1-INH, unknown cause)
  half-life at 100 nM: 22.5 s
In vitro
  half-life (t1/2) of BK in normal plasma: 33 s
In vitro; BK t1/2 in plasma 24 h after 2nd oral dose of enalapril maleate
  half-life at 100 nM: 190 s
In vitro; BK t1/2 in plasma before dosing (baseline)
  half-life at 100 nM: 39.5 s
In vitro; half-life (t1/2) of BK in normal plasma
  half-life at 100 nM: 34 s
In vitro; half-life (t1/2) of BK in plasma with ACE blocked by enalaprilat
  half-life at 100 nM: 426 s
[1]
  t1/2 of BK in serum: 27 s

## CCOC(=O)[C@H](CCc1ccccc1)N[C@@H](C)C(=O)N1CCC[C@H]1C(=O)O [enalapril maleate]
[2]
  fold increase of BK t1/2 in plasma after oral dosing: ~ 5 fold and 4.8 fold
[3]
  blood pressure change during the experiment: slight reversible drop

## Lys-BK: kinin formed by KLK-1 mainly from low molecular weight kininogen; direct B2 receptor agonist
Human B2 receptor
  potency relative to BK at the human B2 receptor: approximately equipotent

## Lys-des-Arg^9-BK
Human B1 receptor
  agonist status at the human B1 receptor: optimal agonist

## des-Arg^9-BK
[1]
  change of half-life of synthetic des-Arg9-BK when ACE is blocked: doubled
Human B1 receptor
  affinity for the human form of the B1 receptor: low affinity

B1: lanadelumab: Human monoclonal antibody, target plasma kallikrein (antibody, chains of the INN, looked up, V domains shown)
VH: EVQLLESGGGLVQPGGSLRLSCAASGFTFSHYIMMWVRQAPGKGLEWVSGIYSSGGITVYADSVKGRFTISRDNSKNTLYLQMNSLRAEDTAVYYCAYRRIGVPRRDEFDIWGQGTMVTVSS
VL: DIQMTQSPSTLSASVGDRVTITCRASQSISSWLAWYQQKPGKAPKLLIYKASTLESGVPSRFSGSGSGTEFTLTISSLQPDDFATYYCQQYNTYWTFGQGTKVEIK
[4]
  effect on early iBK release induced by tPA: significantly decreased; also recorded: suppressed
[5]
  effect on early iBK response to Kontact-APTT: significantly decreased
[6]
  effect on KLK-1-induced iBK formation: not decreased; also recorded: Lack of effect; also recorded: did not inhibit
